The test system of data set [1] is caspase 3/7 activity in AGS cells. The data set is described as follows: Caspase 3/7 activity assay (Ac-DEVD-AMC fluorimetric) in AGS cells. It is filed as cell-based, human. Particulars: 48 h incubation at 12.5 µM, vs control, p < 0.05. The procedure: The activity of caspase 3/7 was determined by fluorimetric assay based on the hydrolysis of the peptide substrate acetyl-Asp-Glu-ValAsp-7-amido-4-methylcoumarin (Ac-DEVD-AMC) by caspase 3/7 using a previously reported procedure.

The test system of data set [2] is MG-63 (osteosarcoma). The data set is described as follows: MTT cytotoxicity assay in MG-63. It is filed as cell-based. Particulars: Homo sapiens, 48 h incubation, mean ± SD. The protocol:
(§1) The cytotoxicity was assessed in different cell lines with the endpoint MTT, using previously reported procedure. The following cells were obtained from the American Type Culture Collection: human embryonic kidney epithelial cell line (HEK 293T, ATCC HBT-22™), breast cancer cell line (MDA-MB-231, ATCC HTB-26™), osteosarcoma cell line (MG-63, ATCC CRL-1427™), gastric adenocarcinoma cell line (AGS, ATTC CRL-1739TM), prostate cancer cell line (DU-145, ATTC HTB-81™), and lung carcinoma cell line (A-549, ATCC CCL-185™). All cell lines were seeded at 2 × 10^4 cells/well with exception of A-549 cell line, which was seeded at 5 × 10^3 cells/well.
A general note: Formazan colour is commonly taken as a measure of viable cells.

For data set [3], the system named is A-549 (lung carcinoma). The data set is described as follows: MTT cytotoxicity assay in A-549. It is filed as cell-based. To be noted: Homo sapiens, A549, 48 h incubation, mean ± SD. The protocol:
as §1

For data set [4], the system named is human gastric adenocarcinoma (AGS) cell line. The data set is described as follows: MTT reduction assay, cell viability / cytotoxicity in AGS cell line. It is filed as cell-based. Particulars: for potency relative to hit 7c (times more potent / fold more active): AGS cells, ratio of IC50 values; for viability at 50 µM: Homo sapiens, AGS cell line, cell viability, MTT, 48 h incubation, mean ± SD, read-out: % CV at 50 µM. The procedure:
as §1

The nature of data set [5]: Human plasma stability. Particulars: human plasma diluted 50% in PBS, 24 h incubation, 37 °C, 100 µM. It is filed as in vitro ADME. The protocol:
(§2) Human plasma was obtained from healthy volunteers and provided by Instituto Português do Sangue, Lisbon, Portugal. Buffer and human plasma stabilities were determined by standard methodology. Specifically, human plasma was centrifuged (5 min, 2000× g, room temperature) and, then, diluted 50% in PBS buffer (pH 7.4). The reactions were initiated by the addition of a solution of compound 7s (4 mM in DMSO, 25 µL) to 975 µL of plasma solution, at 37 °C, obtaining a final concentration of 100 µM. Solutions were stirred at 37 °C and 100 µL aliquots were collected at different time points: 0, 30, 60, 120, and 180 min (one additional aliquot was collected at 24 h). A cold reserpine solution (internal standard, 5 µM in acetonitrile, 300 µL) was then added to quench the reactions. Following centrifugation (10 min, 10,000× g, room temperature), the clear supernatants were stored at −20 °C until further analysis by HPLC-DAD. Assays were run in duplicate and procaine was used as a positive control for plasma stability. Additional control assays were conducted using PBS (pH 7.4) instead of a plasma solution. HPLC-DAD analysis was performed as previously described.

Data set [6] in a line: Buffer (PBS pH 7.4) stability. It is filed as physicochemical. Particulars: PBS pH 7.4, 24 h incubation, 37 °C. The protocol: as §2
Data set [7] in a line: Metabolic stability in human liver microsomes with NADPH. It is filed as in vitro ADME. The protocol: The evaluation of the metabolic stability of compound 7s was conducted in human liver microsomes (GIBCO^TM, 20 donors) by a previously reported procedure. Specifically, for a total incubation volume of 1 mL, in 100 mM phosphate buffer at pH 7.4, 7s (10 μM), human liver microsomes (0.8 mg protein/mL), NADPH (1 mM), and NADPH regeneration system (10 µL, Vivid® Regeneration System, 100×) were used. Nevirapine was used as a positive control. Additional control incubations were performed in the absence of 7s or NADPH, and using heat-denatured (90 °C, 15 min) microsomes. The resulting mixtures were incubated at 37 °C, and all assays were run in duplicate. Aliquots (50 µL) were collected at different time points (0, 5, 10, 20, 30, 40, 50, 60, 75, 90, 120, and 180 min and 24 h) and 50 µL of cold reserpine solution (2.5 µM in acetonitrile) was then added to quench the reactions. Following centrifugation (10 min, 10,000× g, 4 °C), the supernatants were stored at −20 °C until LC-MS and LC-HRMS/MS analysis.
Samples from the metabolic stability assay were analyzed by LC-MS using the experimental conditions previously described. The in vitro depletion half-life of 7s, t1/2, was calculated using Equation (1), assuming that the compound follows a first-order kinetic trend (see Supplementary Materials Figure S2). The “slope” was determined from linear fitting of the natural logarithm of the concentration of drug remaining plotted against time. (1) t1/2=ln2/slope
The intrinsic clearance was calculated using Equation (2) (2) CLint = 0.693/ t1/2 × mL incubation/mg microsomes × 45 mg microsomes/g liver × 26 g liver/Kg b.w.

The text below walks through data of publication PMC8001353, “Tryptophanol-Derived Oxazolopyrrolidone Lactams as Potential Anticancer Agents against Gastric Adenocarcinoma” (Pharmaceuticals, 2021).

Some results are limits rather than exact numbers.

A word on the IC50: it is the concentration at which inhibition is half-maximal. High values mean weaker potency, low ones greater potency. Take `O=C1CC[C@]2(c3ccc(-c4ccc(C(F)(F)F)cc4)cc3)OC[C@@H](Cc3c[nH]c4ccccc34)N12` [Compound 7o, (3R,7aR)-3-((1H-indol-3-yl)methyl)-7a-(4’-(trifluoromethyl)-[1,1’-biphenyl]-4-yl)tetrahydropyrrolo[2,1-b]oxazol-5(6H)-one]: the “caspase 3/7 activity” value in data set [1] is on record as “significant increase”. The compound further yielded an IC50 in data set [2] of 26.8 ± 0.4 µM. The IC50 in data set [3] was > 60 µM. Moreover, in data set [4], the “potency relative to hit 7c (times more potent / fold more active)” value worked out at 2.3 and the viability at 50 µM stood at 7 ± 1%.
For the compound `O=C1CC[C@]2(c3ccc(-c4ccc(Cl)c(Cl)c4)cc3)OC[C@@H](Cc3c[nH]c4ccccc34)N12` [Compound 7s, (3R,7aR)-3-((1H-indol-3-yl)methyl)-7a-(3’,4’-dichloro-[1,1’-biphenyl]-4-yl)tetrahydropyrrolo[2,1-b]oxazol-5(6H)-one], the “caspase 3/7 activity” value in data set [1] is recorded as “significant increase”. In data set [5], the “stability in human plasma” value was “stability in PBS conditions and under plasmatic enzyme activity”. Further, the “stability in PBS” value in data set [6] was “chemical stability in PBS conditions”. In addition, in data set [3], the IC50 is > 60 µM. Besides, in data set [4], the “potency relative to hit 7c (times more potent / fold more active)” value is listed as 2.3 and the viability at 50 µM is 8 ± 1%. The “in vitro metabolic stability” value in data set [7] is “moderately stable”. In addition, in data set [7] (calculated from t1/2 (Equation 2)), the “intrinsic hepatic clearance (CLint)” value is 22.8 min⁻¹ mL⁻¹ kg⁻¹. In data set [7] (pH 7.4, 10 µM, 37 °C, read-out: half-life (t1/2)), the half-life at 10 µM amounted to 45 min.
